Patent US7713971B2, “1,2,4-triazine derivatives, preparation and use thereof in human therapy” (Pierre Fabre Medicament, priority 2005, dated 2010)

Biological target: T1, human PPARα (Homo sapiens, UniProt Q07869)
T1 construct: expressed in transfected cells; host or cells: Cos-7 cells (ATCC, CRL-1651)
T1 sequence (Q07869 239-466 limits assumed): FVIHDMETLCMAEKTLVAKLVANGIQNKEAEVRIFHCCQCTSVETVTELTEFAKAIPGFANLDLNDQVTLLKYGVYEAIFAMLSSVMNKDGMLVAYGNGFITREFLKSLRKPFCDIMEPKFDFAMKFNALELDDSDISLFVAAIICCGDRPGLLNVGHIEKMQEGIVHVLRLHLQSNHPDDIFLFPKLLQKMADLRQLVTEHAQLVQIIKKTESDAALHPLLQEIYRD
Experiment: Reporter gene transactivation, hPPAR-GAL4 alpha
Assay type: cell-based
Details: transfected Cos-7 cells, Gal-4 luciferase reporter, 24 hours treatment

Structure (SMILES)	EC50 [µM]
CCCCCCCn1c(=O)c(N(CCCc2ccccc2)CCc2ccc(OC(C)(C)C(=O)OCC)cc2)nn(C)c1=O [Example 117, Ethyl 2-(4-{2-[(4-heptyl-2-methyl-3,5-dioxo-2,3,4,5-tetrahydro-[1,2,4]triazin-6-yl)-(3-phenyl-propyl)-amino]-ethyl}-phenoxy)-2-methyl-propionate]	~10
CCCCn1c(=O)c(OCCc2ccccc2OC(C)(C)C(=O)OCC)nn(C)c1=O [Example 1, Ethyl 2-{2-[2-(4-butyl-2-methyl-3,5-dioxo-2,3,4,5-tetrahydro-[1,2,4]triazin-6-yloxy)-ethyl]-phenoxy}-2-methyl-propionate]	3 to 10
CCOC(=O)C(C)(C)Oc1ccc(COc2nn(C)c(=O)n(CCCC(F)(F)F)c2=O)cc1 [Example 21, Ethyl 2-methyl-2-{4-[2-methyl-3,5-dioxo-4-(4,4,4-trifluoro-butyl)-2,3,4,5-tetrahydro-[1,2,4]triazin-6-yloxymethyl]-phenoxy}-propionate]	3 to 10
CCCCCCCn1nc(NCCCCc2cccc(SC(C)(C)C(=O)OCC)c2)c(=O)n(CCCCCCC)c1=O [Example 98, Ethyl 2-{3-[4-(2,4-diheptyl-3,5-dioxo-2,3,4,5-tetrahydro-[1,2,4]triazin-6-ylamino)-butyl]-phenylsulfanyl}-2-methyl-propionate]	> 10
CCOC(=O)C(C)(C)Oc1cccc(CCNc2nn(C)c(=O)n(CCCC(F)(F)F)c2=O)c1 [Example 58, Ethyl 2-methyl-2-(3-{2-[2-methyl-3,5-dioxo-4-(4,4,4-trifluoro-butyl)-2,3,4,5-tetrahydro-[1,2,4]triazin-6-ylamino]-ethyl}-phenoxy)-propionate]	> 10
CCOC(=O)C(C)(C)Oc1ccc(CCCCOc2nn(CCCC(F)(F)F)c(=O)n(C)c2=O)cc1 [Example 28, Ethyl 2-methyl-2-(4-{4-[4-methyl-3,5-dioxo-2-(4,4,4-trifluoro-butyl)-2,3,4,5-tetrahydro-[1,2,4]triazin-6-yloxy]-butyl}-phenoxy)-propionate]	~10
CCOC(=O)C(C)(C)Oc1ccc(CCOc2nn(CCCC(F)(F)F)c(=O)n(C)c2=O)cc1 [Example 24, Ethyl 2-methyl-2-(4-{2-[4-methyl-3,5-dioxo-2-(4,4,4-trifluoro-butyl)-2,3,4,5-tetrahydro-[1,2,4]triazin-6-yloxy]-ethyl}-phenoxy)-propionate]	> 10
CCCCCCCn1c(=O)c(NCCc2cccc(OC(C)(C)C(=O)OCC)c2)nn(CCCC(F)(F)F)c1=O [Example 60, Ethyl 2-(3-{2-[4-heptyl-3,5-dioxo-2-(4,4,4-trifluoro-butyl)-2,3,4,5-tetrahydro-[1,2,4]triazin-6-ylamino]-ethyl}-phenoxy)-2-methyl-propionate]	> 10
CCCCCCCn1nc(NCCCCc2cccc(OC(C)(C)C(=O)OC(C)(C)C)c2)c(=O)n(CCCC(F)(F)F)c1=O [Example 83, Tert-butyl 2-(3-{4-[2-heptyl-3,5-dioxo-4-(4,4,4-trifluoro-butyl)-2,3,4,5-tetrahydro-[1,2,4]triazin-6-ylamino]-butyl}-phenoxy)-2-methyl-propionate]	> 10
CCOC(=O)C(C)(C)Oc1cccc(CCOc2nn(C)c(=O)n(CCCC(F)(F)F)c2=O)c1 [Example 3, Ethyl 2-methyl-2-(3-{2-[2-methyl-3,5-dioxo-4-(4,4,4-trifluoro-butyl)-2,3,4,5-tetrahydro-[1,2,4]triazin-6-yloxy]-ethyl}-phenoxy)-propionate]	~3
CCOC(=O)C(C)(C)Oc1cccc(CCCOc2nn(CCCC(F)(F)F)c(=O)n(C)c2=O)c1 [Example 4, Ethyl 2-methyl-2-(3-{3-[4-methyl-3,5-dioxo-2-(4,4,4-trifluoro-butyl)-2,3,4,5-tetrahydro-[1,2,4]triazin-6-yloxy]-propyl}-phenoxy)-propionate]	> 10
CCOC(=O)C(C)(C)Oc1cccc(CCCNc2nn(CCCC(F)(F)F)c(=O)n(C)c2=O)c1 [Example 62, Ethyl 2-methyl-2-(3-{3-[4-methyl-3,5-dioxo-2-(4,4,4-trifluoro-butyl)-2,3,4,5-tetrahydro-[1,2,4]triazin-6-ylamino]-propyl}-phenoxy)-propionate]	> 10
CCOC(=O)C(C)(C)Oc1ccc(CCN(CCc2ccccc2)c2nn(C)c(=O)n(C)c2=O)cc1 [Example 114, Ethyl 2-(4-{2-[(2,4-dimethyl-3,5-dioxo-2,3,4,5-tetrahydro-[1,2,4]triazin-6-yl)-phenethyl-amino]-ethyl}-phenoxy)-2-methyl-propionate]	~10
CCCCCCCn1nc(OCCCc2cccc(SC(C)(C)C(=O)OCC)c2)c(=O)n(C)c1=O [Example 32, Ethyl 2-{3-[3-(2-heptyl-4-methyl-3,5-dioxo-2,3,4,5-tetrahydro-[1,2,4]triazin-6-yloxy)-propyl]-phenylsulfanyl}-2-methyl-propionate]	1 to 3
CCOC(=O)C(C)(C)Oc1ccccc1CCNc1nn(CCCC(F)(F)F)c(=O)n(CCCC(F)(F)F)c1=O [Example 55, Ethyl 2-(2-{2-[3,5-Dioxo-2,4-bis-(4,4,4-trifluoro-butyl)-2,3,4,5-tetrahydro-[1,2,4]triazin-6-ylamino]-ethyl}-phenoxy)-2-methyl-propionate]	> 10
CCOC(=O)C(C)(C)Oc1cccc(CCCNc2nn(CCCC(F)(F)F)c(=O)n(Cc3ccccc3)c2=O)c1 [Example 71, Ethyl 2-(3-{3-[4-benzyl-3,5-dioxo-2-(4,4,4-trifluoro-butyl)-2,3,4,5-tetrahydro-[1,2,4]triazin-6-ylamino]-propyl}-phenoxy)-2-methyl-propionate]	~1
CCCCCCCn1c(=O)c(NCCc2cccc(SC(C)(C)C(=O)OCC)c2)nn(C)c1=O [Example 61, Ethyl 2-{3-[2-(4-heptyl-2-methyl-3,5-dioxo-2,3,4,5-tetrahydro-[1,2,4]triazin-6-ylamino)-ethyl]-phenylsulfanyl}-2-methyl-propionate]	~3
CCOC(=O)C(C)(C)Oc1ccc(OCCNc2nn(CCCC3CCCCC3)c(=O)n(CCCC3CCCCC3)c2=O)cc1 [Example 43, Ethyl 2-(4-{2-[2,4-bis-(3-cyclohexylpropyl)-3,5-dioxo-2,3,4,5-tetrahydro-[1,2,4]triazin-6-ylamino]-ethoxy}-phenoxy)-2-methyl-propionate]	~3
CCCCCCCn1c(=O)c(OCCc2ccc(OC(C)(C)C(=O)OCC)cc2)nn(C)c1=O [Example 26, Ethyl 2-{4-[2-(4-heptyl-2-methyl-3,5-dioxo-2,3,4,5-tetrahydro-[1,2,4]triazin-6-yloxy)-ethyl]-phenoxy}-2-methyl-propionate]	> 10
CCCCCCCn1nc(NCCc2ccc(OC(C)(C)C(=O)OCC)cc2)c(=O)n(CCCCCCC)c1=O [Example 108, Ethyl 2-{4-[2-(2,4-diheptyl-3,5-dioxo-2,3,4,5-tetrahydro-[1,2,4]triazin-6-ylamino)-ethyl]-phenoxy}-2-methyl-propionate]	> 10
CCCCCCCn1nc(NCCCCc2cccc(SC(C)(C)C(=O)OCC)c2)c(=O)n(Cc2ccccc2)c1=O [Example 101, Ethyl 2-{3-[4-(4-benzyl-2-heptyl-3,5-dioxo-2,3,4,5-tetrahydro-[1,2,4]triazin-6-ylamino)-butyl]-phenylsulfanyl}-2-methyl-propionate]	1 to 3
Cn1nc(NCCCCc2cccc(OC(C)(C)C(=O)OC(C)(C)C)c2)c(=O)n(CCCC(F)(F)F)c1=O [Example 78, Tert-butyl 2-methyl-2-(3-{4-[2-methyl-3,5-dioxo-4-(4,4,4-trifluoro-butyl)-2,3,4,5-tetrahydro-[1,2,4]triazin-6-ylamino]-butyl}-phenoxy)-propionate]	> 10
CCCCCCCn1c(=O)c(NCCc2ccc(OC(C)(C)C(=O)OCC)cc2)nn(CCCC(F)(F)F)c1=O [Example 107, Ethyl 2-(4-{2-[4-heptyl-3,5-dioxo-2-(4,4,4-trifluoro-butyl)-2,3,4,5-tetrahydro-[1,2,4]triazin-6-ylamino]-ethyl}-phenoxy)-2-methyl-propionate]	~1
CCCCCCCn1c(=O)c(N(CCc2ccccc2)CCc2ccc(OC(C)(C)C(=O)OCC)cc2)nn(C)c1=O [Example 116, Ethyl 2-(4-{2-[(4-heptyl-2-methyl-3,5-dioxo-2,3,4,5-tetrahydro-[1,2,4]triazin-6-yl)-phenethyl-amino]-ethyl}-phenoxy)-2-methyl-propionate]	~10
CCOC(=O)C(C)(C)Sc1cccc(CCCCNc2nn(CCCC(F)(F)F)c(=O)n(C)c2=O)c1 [Example 93, Ethyl 2-methyl-2-(3-{4-[4-methyl-3,5-dioxo-2-(4,4,4-trifluoro-butyl)-2,3,4,5-tetrahydro-[1,2,4]triazin-6-ylamino]-butyl}-phenylsulfanyl)-propionate]	> 10
CCCCCCCN(CCCCOc1cccc(SC(C)(C)C(=O)OCC)c1)c1nn(C)c(=O)n(C)c1=O [Example 54, Ethyl 2-(3-{4-[(2,4-Dimethyl-3,5-dioxo-2,3,4,5-tetrahydro-[1,2,4]triazin-6-yl)-heptyl-amino]-butoxy}-phenylsulfanyl)-2-methyl-propionate]	> 10
CCCCCCCn1c(=O)c(OCc2ccc(OC(C)(C)C(=O)OCC)cc2)nn(CCCC(F)(F)F)c1=O [Example 23, Ethyl 2-{4-[4-heptyl-3,5-dioxo-2-(4,4,4-trifluoro-butyl)-2,3,4,5-tetrahydro-[1,2,4]triazin-6-yloxymethyl]-phenoxy}-2-methyl-propionate]	1
CCOC(=O)C(C)(C)Oc1ccc(CCNc2nn(CCCC(F)(F)F)c(=O)n(C)c2=O)cc1 [Example 102, Ethyl 2-methyl-2-(4-{2-[4-methyl-3,5-dioxo-2-(4,4,4-trifluoro-butyl)-2,3,4,5-tetrahydro-[1,2,4]triazin-6-ylamino]-ethyl}-phenoxy)-propionate]	> 10
